Where “and” joins values, the source holds several entries; their conditions need not be identical. Equal entries are not always repeated. Toxic doses and inconclusive results are not listed. No stated cut-off is given here; in the data, active means T/C of 150% or more; inactive means T/C below 125%.
Tested on: L1210 leukemia ip in BDF1 mice, survival T/C
Experiment: NCI In Vivo Anticancer Drug Screen. Data for tumor model L1210 Leukemia (intraperitoneal) in B6D2F1 (BDF1) mice
Conditions: endpoint: mean survival time, higher = longer survival
Procedure, shortened: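 Survival endpoint. Drug-treated group vs vehicle group, expressed as T divided by C. Tumor passaged by transplantation.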

[1] = dose: 6.25 mg/kg/injection, schedule: Q04DX003 (ip), vehicle: saline
[2] = dose: 12.5 mg/kg/injection, schedule: Q04DX003 (ip), vehicle: saline
[3] = dose: 100.0 mg/kg/injection, schedule: Q01DX009 (ip), vehicle: Klucel (hydroxypropylcellulose) (HPC)
[4] = dose: 200.0 mg/kg/injection, schedule: Q01DX009 (ip), vehicle: Klucel (hydroxypropylcellulose) (HPC)
[5] = dose: 400.0 mg/kg/injection, schedule: Q01DX009 (ip), vehicle: Klucel (hydroxypropylcellulose) (HPC)
[6] = dose: 100.0 mg/kg/injection, schedule: Q04DX003 (ip), vehicle: Klucel (hydroxypropylcellulose) (HPC)
[7] = dose: 200.0 mg/kg/injection, schedule: Q04DX003 (ip), vehicle: Klucel (hydroxypropylcellulose) (HPC)
[8] = dose: 400.0 mg/kg/injection, schedule: Q04DX003 (ip), vehicle: Klucel (hydroxypropylcellulose) (HPC)

Measured: T/C

CCc1ccc(/C=C/c2ccc(O)c3ncccc23)[n+](C)c1
inactive: dose: 2.0 mg/kg/injection, schedule: Q01DX015 (ip), vehicle: carboxymethylcellulose (CMC) 115 % of control | dose: 2.0 mg/kg/injection, schedule: Q03HX008 (ip), vehicle: other 94 % of control | dose: 2.0 mg/kg/injection, schedule: Q03HX016 (ip), vehicle: other 90 % of control | dose: 2.0 mg/kg/injection, schedule: Q03HX024 (ip), vehicle: other 98 % of control | dose: 4.0 mg/kg/injection, schedule: Q01DX009 (ip), vehicle: carboxymethylcellulose (CMC) 120 % of control | dose: 4.0 mg/kg/injection, schedule: Q01DX009 (ip), vehicle: other 97 % of control | dose: 4.0 mg/kg/injection, schedule: Q01DX015 (ip), vehicle: carboxymethylcellulose (CMC) 108 % of control | dose: 4.0 mg/kg/injection, schedule: Q03HX008 (ip), vehicle: other 98 % of control | dose: 4.0 mg/kg/injection, schedule: Q03HX016 (ip), vehicle: other 96 % of control | dose: 4.0 mg/kg/injection, schedule: Q03HX024 (ip), vehicle: other 97 % of control | dose: 5.0 mg/kg/injection, schedule: Q01DX001 (ip), vehicle: carboxymethylcellulose (CMC) 94 % of control | dose: 6.25 mg/kg/injection, schedule: Q01DX009 (ip), vehicle: saline 108 % of control | [1] 107 % of control | dose: 8.0 mg/kg/injection, schedule: Q01DX009 (ip), vehicle: other 106 % of control | dose: 8.0 mg/kg/injection, schedule: Q01DX015 (ip), vehicle: carboxymethylcellulose (CMC) 113 % of control | dose: 8.0 mg/kg/injection, schedule: Q03HX008 (ip), vehicle: other 104 % of control | dose: 8.0 mg/kg/injection, schedule: Q03HX016 (ip), vehicle: other 103 % of control | dose: 8.0 mg/kg/injection, schedule: Q03HX024 (ip), vehicle: other 108 % of control | dose: 10.0 mg/kg/injection, schedule: Q01DX001 (ip), vehicle: carboxymethylcellulose (CMC) 100 % of control | dose: 12.5 mg/kg/injection, schedule: Q01DX001 (ip), vehicle: saline 104 % of control | dose: 12.5 mg/kg/injection, schedule: Q01DX009 (ip), vehicle: saline 124 % of control | [2] 110 % of control | dose: 16.0 mg/kg/injection, schedule: Q01DX001 (ip), vehicle: other 107 % of control | dose: 16.0 mg/kg/injection, schedule: Q01DX009 (ip), vehicle: other 120 % of control | dose: 16.0 mg/kg/injection, schedule: Q03HX008 (ip), vehicle: other 112 % of control | dose: 16.0 mg/kg/injection, schedule: Q03HX016 (ip), vehicle: other 110 % of control | dose: 16.0 mg/kg/injection, schedule: Q03HX024 (ip), vehicle: other 122 % of control | dose: 16.0 mg/kg/injection, schedule: Q04DX003 (ip), vehicle: other 100 % of control | dose: 16.0 mg/kg/injection, schedule: Q08DX002 (ip), vehicle: other 97 % of control | dose: 20.0 mg/kg/injection, schedule: Q01DX001 (ip), vehicle: carboxymethylcellulose (CMC) 112 % of control | dose: 25.0 mg/kg/injection, schedule: Q01DX001 (ip), vehicle: saline 114 % of control | dose: 25.0 mg/kg/injection, schedule: Q01DX009 (ip), vehicle: saline 117 % of control | dose: 25.0 mg/kg/injection, schedule: Q04DX003 (ip), vehicle: saline 110 % of control | dose: 32.0 mg/kg/injection, schedule: Q01DX001 (ip), vehicle: other 102 % of control | dose: 32.0 mg/kg/injection, schedule: Q01DX009 (ip), vehicle: other 123 % of control | dose: 32.0 mg/kg/injection, schedule: Q01DX015 (ip), vehicle: carboxymethylcellulose (CMC) 121 % of control | dose: 32.0 mg/kg/injection, schedule: Q04DX003 (ip), vehicle: other 96 % of control | dose: 32.0 mg/kg/injection, schedule: Q08DX002 (ip), vehicle: other 96 % of control | dose: 40.0 mg/kg/injection, schedule: Q01DX001 (ip), vehicle: carboxymethylcellulose (CMC) 112 % of control

O=CNNC(=O)c1cccc([N+](=O)[O-])c1
inactive: dose: 100.0 mg/kg/injection, schedule: Q01DX001 (ip), vehicle: other 95 % of control | dose: 100.0 mg/kg/injection, schedule: Q04DX003 (ip), vehicle: other 97 % of control | dose: 200.0 mg/kg/injection, schedule: Q01DX001 (ip), vehicle: other 101 % of control | dose: 200.0 mg/kg/injection, schedule: Q04DX003 (ip), vehicle: other 95 % of control | dose: 400.0 mg/kg/injection, schedule: Q01DX001 (ip), vehicle: other 92 % of control

O=C1CC(C(=O)O)C(C(=O)O)O1 (stereo unspecified)
inactive: dose: 50.0 mg/kg/injection, schedule: Q01DX001 (ip), vehicle: saline 97 % of control | dose: 75.0 mg/kg/injection, schedule: Q01DX001 (ip), vehicle: saline 101 % of control | dose: 100.0 mg/kg/injection, schedule: Q01DX001 (ip), vehicle: saline 92 % of control | dose: 150.0 mg/kg/injection, schedule: Q01DX001 (ip), vehicle: saline 97 % of control | dose: 200.0 mg/kg/injection, schedule: Q01DX001 (ip), vehicle: saline 90 % of control

C#CCOC(=O)C(Cl)(Cl)Cl
inactive: dose: 100.0 mg/kg/injection, schedule: Q04DX002 (ip), vehicle: other 107 % of control | dose: 200.0 mg/kg/injection, schedule: Q04DX002 (ip), vehicle: other 96 % of control

COc1ccc(-c2nnc3n2C(C)(C)N=C(N)N3)cc1
inactive: dose: 100.0 mg/kg/injection, schedule: Q04DX003 (ip), vehicle: saline with Tween-80 94 % of control | dose: 200.0 mg/kg/injection, schedule: Q04DX003 (ip), vehicle: saline with Tween-80 100 % of control | dose: 400.0 mg/kg/injection, schedule: Q04DX003 (ip), vehicle: saline with Tween-80 97 % of control

CC1(C(Cl)(Cl)Cl)C=CC(=O)C(Cl)=C1 (stereo unspecified)
inactive: [3] 100 % of control | [4] 103 % of control | [5] 97 % of control

COc1ccc(NC(=O)Nc2onc(C)c2C)c(Cl)c1
inactive: dose: 100.0 mg/kg/injection, schedule: Q01DX001 (ip), vehicle: Klucel (hydroxypropylcellulose) (HPC) 95 % of control | [3] 94 % of control and 100 % of control | dose: 100.0 mg/kg/injection, schedule: Q04DX002 (ip), vehicle: Klucel (hydroxypropylcellulose) (HPC) 101 % of control | [6] 87 % of control | dose: 200.0 mg/kg/injection, schedule: Q01DX001 (ip), vehicle: Klucel (hydroxypropylcellulose) (HPC) 97 % of control | [4] 95 % of control and 88 % of control | dose: 200.0 mg/kg/injection, schedule: Q04DX002 (ip), vehicle: Klucel (hydroxypropylcellulose) (HPC) 95 % of control and 101 % of control | [7] 97 % of control | dose: 400.0 mg/kg/injection, schedule: Q01DX001 (ip), vehicle: Klucel (hydroxypropylcellulose) (HPC) 104 % of control | [5] 93 % of control and 95 % of control | dose: 400.0 mg/kg/injection, schedule: Q04DX002 (ip), vehicle: Klucel (hydroxypropylcellulose) (HPC) 96 % of control | [8] 88 % of control | dose: 4000.0 mg/kg/injection, schedule: Q04DX002 (ip), vehicle: Klucel (hydroxypropylcellulose) (HPC) 90 % of control

CC(O)C(O)C(O)C(O)/C=N/O (stereo unspecified)
inactive: [6] 100 % of control | [7] 97 % of control | [8] 102 % of control

CCOC(=O)c1cc(CC)sc1N
inactive: dose: 100.0 mg/kg/injection, schedule: Q01DX009 (ip), vehicle: saline with Tween-80 96 % of control | [6] 91 % of control | dose: 200.0 mg/kg/injection, schedule: Q01DX009 (ip), vehicle: saline with Tween-80 86 % of control | [7] 97 % of control | dose: 400.0 mg/kg/injection, schedule: Q01DX009 (ip), vehicle: saline with Tween-80 90 % of control | [8] 96 % of control

O=C1C=CC(=Nc2ccc3c(c2)C(Br)c2ccccc2-3)O1 (stereo unspecified)
inactive: dose: 3.12 mg/kg/injection, schedule: Q04DX003 (ip), vehicle: saline 100 % of control | dose: 4.5 mg/kg/injection, schedule: Q01DX009 (ip), vehicle: saline 102 % of control | [1] 105 % of control | dose: 9.0 mg/kg/injection, schedule: Q01DX009 (ip), vehicle: saline 95 % of control | dose: 12.5 mg/kg/injection, schedule: Q01DX001 (ip), vehicle: acetone 100 % of control | [2] 103 % of control | dose: 18.0 mg/kg/injection, schedule: Q04DX003 (ip), vehicle: saline 98 % of control
